Source: BigSolDB 2.1

O=c1cc(-c2ccc(O)cc2)oc2cc(O)cc(O)c12
solubility (mole fraction)
Details | 298.2 K | 303.2 K | 308.2 K | 313.2 K | 318.2 K
in DMSO | 0.376 | 0.384 | 0.395 | 0.407 | 0.418
in ethanol | 0.00025 | 0.000314 | 0.000358 | 0.000426 | 0.000486
in ethyl acetate | 0.000241 | 0.000284 | 0.000326 | 0.000394 | 0.000446
in ethylene glycol | 0.00522 | 0.00573 | 0.00644 | 0.00732 | 0.00822
in isopropanol | 0.00038 | 0.000427 | 0.000485 | 0.000551 | 0.000629
in methanol | 0.000142 | 0.000172 | 0.000207 | 0.000249 | 0.000296
in n-butanol | 0.000562 | 0.00063 | 0.000713 | 0.000808 | 0.000918
in propylene glycol | 0.0101 | 0.0112 | 0.0124 | 0.0137 | 0.015
in sec-butanol | 0.000534 | 0.000603 | 0.000685 | 0.000781 | 0.00089
in transcutol | 0.334 | 0.345 | 0.357 | 0.371 | 0.383
in water | 1.04e-06 | 1.33e-06 | 1.73e-06 | 2.27e-06 | 3.08e-06

Details | solubility (mole fraction)
in PEG-400, 298.2 K | 0.397
in PEG-400, 303.2 K | 0.405
in PEG-400, 308.2 K | 0.413
in PEG-400, 313.2 K | 0.42
in PEG-400, 318.2 K | 0.427
